Data taken from PMC8432876, “Acetylcholine esterase inhibitory activity of green synthesized nanosilver by naphthopyrones isolated from marine-derived Aspergillus niger” (PLoS ONE, 2021).

Molecular target: acetylcholine esterase AChE (Homo sapiens, UniProt P22303)
Test: biochemical
Assay type: biochemical
Settings: Ellman's method; for IC50: AChEI activity
Experimental: Acetylcholine esterase inhibitory activity of isolated compounds and their synthesized silver nanoparticles were assessed using Ellman’s method as previously prescribed.
Acetylcholine esterase inhibitory (AChEI) activity was assessed by using Ellman’s method.

acetylcholine esterase AChE, sequence (P22303 32-614): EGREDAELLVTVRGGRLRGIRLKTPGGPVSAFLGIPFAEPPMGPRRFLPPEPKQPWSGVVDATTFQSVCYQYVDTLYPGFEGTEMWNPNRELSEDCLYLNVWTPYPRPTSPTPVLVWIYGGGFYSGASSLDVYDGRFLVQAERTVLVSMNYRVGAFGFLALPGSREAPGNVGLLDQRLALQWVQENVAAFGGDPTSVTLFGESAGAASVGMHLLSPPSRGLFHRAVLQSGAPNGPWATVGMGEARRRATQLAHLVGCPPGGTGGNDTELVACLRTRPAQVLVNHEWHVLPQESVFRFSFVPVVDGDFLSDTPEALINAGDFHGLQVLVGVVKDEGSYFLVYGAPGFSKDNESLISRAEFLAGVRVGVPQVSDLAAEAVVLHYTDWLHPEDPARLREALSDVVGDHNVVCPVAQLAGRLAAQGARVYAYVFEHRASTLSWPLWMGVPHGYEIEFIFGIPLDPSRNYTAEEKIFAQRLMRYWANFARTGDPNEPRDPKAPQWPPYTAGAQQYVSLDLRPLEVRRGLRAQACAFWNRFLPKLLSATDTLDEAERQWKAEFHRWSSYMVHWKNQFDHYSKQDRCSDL

Row | SMILES | IC50 | AChE inhibitory activity (in words)
1 | NC(=O)c1c[nH]c(Cc2ccccc2)cc1=O [Asperginin A (7), Aspernigrin A] | 20.2 ± 3.03 µM | 
2 | COc1cc(OC)c2c(O)c3c(=O)cc(C)oc3c(-c3c(OC)cc4cc(O)c5c(=O)cc(C)oc5c4c3OC)c2c1 [Fonsecinone A (4), Fonsecinone A] | 7.52 ± 2.16 µM | 
3 | COc1cc(OC)c2c(c1)cc(O)c1c(=O)cc(C)oc12 [Flavasperone (1), Flavasperone] | > 25 µM | didn’t show any inhibitory activity
4 | COc1cc(OC)c2c(O)c3c(=O)cc(C)oc3cc2c1 [Rubrofusarin B (2), Rubrofusarin B] | 13.9 ± 2.16 µM | moderate inhibitory activity
5 | COc1cc(OC)c2c(O)c3c(=O)cc(C)oc3c(-c3c(OC)cc4cc5oc(C)cc(=O)c5c(O)c4c3OC)c2c1 [Aurasperone A (3), Aurasperone A] | 4.9 ± 2.16 µM | 
